Results published in PubChem BioAssay AID1421 (Emory University Molecular Libraries Screening Center, 2008).
“And” between values parts separate entries of the source, which are not always exact repeats. Equal entries are not always repeated. The source made the active and inactive calls. No rule for the calls is given here.

What follows are compounds tested against Prostaglandin E2 receptor EP2 subtype (Homo sapiens) (UniProt P43116) (assay: EP2 receptor modulators, dose response, cell-based, human EP2, PGE2 EC50 shift (AID 1421)). Settings: EP2-expressing cells, PGE2 EC50 shift by compound.
Prostaglandin E2 receptor EP2 subtype (Homo sapiens), sequence (P43116 whole entry, looked up): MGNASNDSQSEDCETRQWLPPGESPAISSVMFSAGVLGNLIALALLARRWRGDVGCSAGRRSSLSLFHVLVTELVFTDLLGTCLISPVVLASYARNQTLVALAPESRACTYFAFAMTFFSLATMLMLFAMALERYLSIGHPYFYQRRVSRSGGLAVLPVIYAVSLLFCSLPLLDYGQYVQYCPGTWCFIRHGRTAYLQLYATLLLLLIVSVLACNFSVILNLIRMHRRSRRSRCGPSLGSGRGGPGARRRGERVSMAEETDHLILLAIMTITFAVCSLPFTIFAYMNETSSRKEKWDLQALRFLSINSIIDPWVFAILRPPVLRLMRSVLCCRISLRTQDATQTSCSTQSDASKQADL

Row | Structure (SMILES) | outcome
1 | CCC(C)N(C)C(=O)c1cc2ccccc2c(-c2ccccc2Cl)n1 (stereo not drawn) | active
2 | CC12CCC(C(=O)N(CSC(=S)N/N=C\c3ccccc3Cl)C1=O)C2(C)C (stereo not drawn) | active
3 | Cc1ccc2nc(Nc3ccc4[nH]c(=O)[nH]c4c3)c(-n3nc(C)cc3C)nc2c1 | active
4 | CCCCn1c(=O)c2ccccc2c2ccccc2c1=O | active
5 | CCc1ccccc1NC(=O)/C(=C/c1ccccc1)c1ccccc1 | active
6 | O=C(Nc1ccccc1N1CCN(c2ccccc2)CC1)C12CC3CC(CC(C3)C1)C2 | active
7 | CCOC(=O)c1c(NC(=O)CN2CCCCC2)sc(C)c1C | active
8 | C(=N\N(Cc1ccccc1)c1ccccc1)/c1cccnc1 | active
9 | CC1CCc2c(sc(N)c2C(=O)OC(C)C)C1 (stereo not drawn) | active
10 | CCOCC(=O)Nc1sc2c(c1C(=O)OCC)CCCC2 | active
11 | COc1ncnc2c1oc1nc(CC(C)C)c3c(c12)CCCC3 | active
12 | FC(F)(F)c1cc(-c2ccccc2)nc(N2CCOCC2)n1 | active
13 | O=C(Nc1ccccc1-c1ccccc1)c1ccc(Br)o1 | active
14 | COc1ccc(-c2cc(C(F)(F)F)nc(N3CCCCC3)n2)cc1OC | active

Same assay, conditions: EP2-expressing cells, PGE2 EC50 shift by compound; measured here: PGE2 EC50 at 6.7 uM compound

Row | Structure (SMILES) | PGE2 EC50 with compound
15 | Cc1ccc(N=Cc2cc(Cc3ccccc3Cl)cc([N+](=O)[O-])c2O)c(O)c1 | 0.6 nM
16 | CCN(CC)CCN1C(=O)c2cccc3cc(N)cc(c23)C1=O | 2.64 nM
17 | O=S(=O)(C=C(c1ccccc1)c1ccccc1)c1ccccc1 | 2.7 nM
18 | CC1Cc2ccccc2N1CC(=O)NC(c1ccccc1)c1ccccc1 (stereo not drawn) | 1.48 nM
19 | CCC(C)N(C)C(=O)c1cc2ccccc2c(-c2ccccc2Cl)n1 (stereo not drawn) | 0.93 nM and 1.18 nM
20 | COc1ccc(-c2csc3nc(C)nc(N4CCC(C)CC4)c23)cc1OC | 0.95 nM
21 | CC(=O)Nc1ccc(C2=NN(c3ccccc3)C(c3cccs3)C2)cc1 (stereo not drawn) | 0.65 nM
22 | CCOC(=O)c1oc2ccccc2c1NC(=O)c1ccccc1OC | 1.25 nM
23 | CC1CN(c2nc3ccccc3cc2-c2ccccc2)CC(C)O1 (stereo not drawn) | 0.53 nM
24 | CC1=C(C(=O)OCc2ccccc2)C(c2ccc(Cl)cc2Cl)NC(=O)N1CCCCCC(=O)O (stereo not drawn) | 1.23 nM
25 | CC12CCC(C(=O)N(CSC(=S)N/N=C\c3ccccc3Cl)C1=O)C2(C)C (stereo not drawn) | 1.7 nM
26 | CCC1Oc2ccccc2N(Cc2ccccc2C)C1=O (stereo not drawn) | 2.7 nM
27 | CCOC(=O)c1c(NC(=O)c2ccc(Br)o2)sc(C)c1CC | 0.94 nM
28 | Cc1ccc2nc(Nc3ccc4[nH]c(=O)[nH]c4c3)c(-n3nc(C)cc3C)nc2c1 | 2.69 nM
29 | CCCCN1C(=O)/C(=C2\SC(N3CCCCC3)=NC2=O)c2ccccc21 | 1.26 nM
30 | CCn1c2ccccc2c2cc([N+](=O)[O-])ccc21 | 0.83 nM
31 | C=CCn1c(-c2oc3nc(-c4ccccc4)cc(-c4ccccc4)c3c2N)n[nH]c1=S | 1.45 nM
32 | CCCCn1c(=O)c2ccccc2c2ccccc2c1=O | 0.96 nM
33 | COc1ccc(C)c(Cn2c(-c3nonc3N)nc3ccccc32)c1 | 0.86 nM
34 | CN(c1ccccc1)C1CCCCC1NS(=O)(=O)c1ccc(Cl)cc1 (stereo not drawn) | 2.43 nM
35 | CC(=O)O[C@@H]1c2c(ccc3ccc(=O)oc23)OC(C)(C)[C@@H]1OC(=O)CC(C)C | 0.92 nM
36 | CCc1ccccc1NC(=O)/C(=C/c1ccccc1)c1ccccc1 | 1.14 nM

Row | Structure (SMILES) | PGE2 EC50 with compound
37 | O=C(Nc1cccc(Cl)c1N1CCCC1)c1ccc(Br)o1 | 1.61 nM
38 | CCOC(=O)c1c(-c2ccc(C)cc2)csc1NC(=O)CCN1CCOCC1 | 1.21 nM
39 | NC(=O)c1sc2nc(N3CCCCC3)c3c(c2c1N)CCCC3 | 2.62 nM
40 | Cc1cc(C)nc(SCc2nnc(SCC#N)n2-c2cccc(Cl)c2)n1 | 2.76 nM
41 | Nc1ccc(Cl)cc1C(=O)c1ccccc1Cl | 1.16 nM
42 | CCN(CC)c1nc(C#N)nc(N(CC)CC)n1 | 0.95 nM
43 | COc1ccc(C2=NN(C(=O)c3cccs3)C(c3ccccc3O)C2)cc1 (stereo not drawn) | 0.51 nM
44 | O=C(c1cn(Cc2ccccc2)c2ccccc12)C1CC1 | 2.61 nM
45 | C#CCSc1nc(Cc2ccc(Cl)cc2)nc2ccccc12 | 1.22 nM
46 | C/C=C(\C)c1nnc(NC(=O)OCC)s1 | 2.65 nM
47 | Cc1onc(-c2ccccc2)c1C(=O)N(Cc1ccco1)Cc1cccs1 | 0.34 nM
48 | Cn1cc(C2=C(c3ccc(Cl)cc3Cl)C(=O)NC2=O)c2ccccc21 | 0.68 nM
49 | Cn1c(/C=C/N(Cc2ccccc2)c2ccccc2)c([N+](=O)[O-])c(=O)n(C)c1=O | 1.21 nM
50 | CCCCC(=O)C1CCN(Cc2ccccc2)CC1 | 0.89 nM
51 | CC1=CCc2c(cc3oc(C)cc(=O)c3c2O)OC1 | 1.3 nM
52 | CCOc1ccc(OCC)c(NC(=O)CN2CCN(c3cc(C)ccc3C)CC2)c1 | 0.8 nM
53 | CCOC(=O)c1c(-c2cccs2)csc1NC(=O)COC(=O)c1c(C)noc1C | 0.32 nM
54 | O=C(Nc1ccccc1N1CCN(c2ccccc2)CC1)C12CC3CC(CC(C3)C1)C2 | 2.52 nM
55 | Cc1cccc(-c2nc(=S)c3c(n2Cc2ccco2)CCCC3)c1 | 0.88 nM
56 | CCn1c(-c2ccccc2)c(C(=O)CCl)c2ccccc21 | 1 nM
57 | CCOC(=O)c1c(NC(=O)CN2CCCCC2)sc(C)c1C | 0.89 nM
58 | Cc1ccc(-c2csc(N(CC3CCCO3)C(=O)c3ccco3)n2)cc1 (stereo not drawn) | 0.87 nM
